{
  "source": "paper PMC2864300",
  "about": "“Regulation of NOXO1 Activity through Reversible Interactions with p22^phox and NOXA1” (PLoS ONE, 2010)",
  "key": {"[1]": {"test_system": "mouse proteins (NOX1 system)", "details": "ref [32]–[34]; cited from earlier work"}, "[2]": {"test_system": "human NOX1", "details": "ref [32]–[34]; cited from earlier work"}, "[3]": {"target": "T1, tandem SH3 domains of human NOXO1 (Homo sapiens, UniProt Q8NFA2)", "T1 construct": "was titrated against the tandem SH3 domains as well as against the individual SH3A and SH3B domains; GST (N, cleaved yes); made in house; host or cells: Escherichia coli BL21 STAR", "T1 sequence (Q8NFA2 157-290 isoform Q8NFA2-4)": "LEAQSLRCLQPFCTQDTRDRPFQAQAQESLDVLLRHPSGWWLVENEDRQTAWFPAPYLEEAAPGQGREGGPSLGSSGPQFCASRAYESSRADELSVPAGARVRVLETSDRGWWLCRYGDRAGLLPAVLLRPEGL", "assay": "ITC, binding to human NOXO1 tandem SH3 domains", "details": "18°C; for Kd: pH 7.4, titrated against tandem SH3 domains", "protocol": "(§1) Complex formation between NOXO1, NOXA1 and p22^phox fragments or peptides were measured by isothermal titration calorimetry using a MicroCal VP-ITC calorimeter (MicroCal Inc., Northampton, USA). All proteins were dialysed against ITC buffer (150 mM NaCl, 1 mM DTT and 50 mM HEPES, pH 7.4) and performed at 18°C. All peptides were dissolved in ITC buffer. Typically, 20–40 µM of protein in the cell was titrated by stepwise injections of a total of 200–300 µM of the ligand. Heats of dilution were determined by titrating protein or peptide into ITC buffer and subtracted from the raw ITC data prior to analysis with the software, Origin version 7.0, assuming a single-site binding model. Data were averaged over three to five experiments."}, "[4]": {"target": "T2, human NOXA1 SH3 (Homo sapiens, UniProt Q86UR1)", "T2 construct": "GST (N, cleaved yes); made in house; host or cells: Escherichia coli BL21 STAR", "T2 sequence (Q86UR1 399-458 limits assumed)": "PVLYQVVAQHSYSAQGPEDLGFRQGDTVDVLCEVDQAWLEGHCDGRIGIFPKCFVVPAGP", "assay": "ITC, binding to human NOXA1 SH3", "details": "18°C, 150 mM NaCl, 1 mM DTT, 50 mM HEPES, pH 7.4, peptide in syringe, human NOXA1 SH3 in cell, averaged over three to five experiments, read-out: K (Kd)", "protocol": "as §1"}, "[5]": {"test_system": "interaction between NOXO1 and p22^phox", "details": "cited from earlier work", "description": "In this study we provide evidence that the assembly of the NOX1 oxidase complex can be regulated through reversible protein-protein interactions. […] However, the inhibitory effect of the C-terminal tail is less pronounced in NOXO1 than in the homologous p47^phox subunit of the phagocytic oxidase, and may explain why the NOX1 system is capable of producing low levels of superoxide, in a constitutive ..."}},
  "note": "Where a SMILES comes first, the peptide text is derived from it. Where no end group is shown, it is not given here.",
  "data": [
    {"molecule": "CCCCCCCCCCCCCC(=O)O[C@@H]1[C@@H](C)[C@@]2(O)[C@@H](C=C(CO)C[C@]3(O)C(=O)C(C)=C[C@@H]23)[C@@H]2C(C)(C)[C@]12OC(C)=O", "note": "[PMA]", "values": [
      {"measurement": "superoxide production with the mouse proteins", "setting": "[1]", "result": "a similar increase could not be observed with the mouse proteins"},
      {"measurement": "superoxide production by human NOX1", "setting": "[2]", "result": "increased"}
    ]},
    {"molecule": "CC[C@H](C)[C@H](NC(=O)[C@H](C)NC(=O)CNC(=O)[C@@H]1CCCN1C(=O)[C@H](CO)NC(=O)[C@@H]1CCCN1C(=O)[C@H](CCCNC(=N)N)NC(=O)[C@@H](NC(=O)[C@@H]1CCCN1C(=O)[C@@H](NC(=O)[C@@H](NC(=O)[C@@H]1CCCN1C(=O)[C@@H]1CCCN1C(=O)[C@@H]1CCCN1C(=O)[C@H](C)NC(=O)[C@@H](N)[C@@H](C)O)[C@@H](C)O)C(C)C)[C@@H](C)O)C(=O)N[C@@H](CCC(N)=O)C(=O)N[C@@H](CO)C(=O)N[C@@H](CCCNC(=N)N)C(=O)N[C@@H](CS)C(=O)N[C@@H](CS)C(=O)N[C@H](C(=O)N[C@H](C(=O)N[C@H](C(=O)N[C@@H](CCCNC(=N)N)C(=O)N[C@@H](CCCNC(=N)N)C(=O)N[C@@H](C)C(=O)N[C@@H](CC(C)C)C(=O)N[C@@H](CCC(=O)O)C(=O)O)[C@@H](C)O)C(C)C)[C@@H](C)O", "note": "[PeptideA] (H-TAPPPTVPTRPSPGAIQSRCCTVTRRALE-OH)", "values": [
      {"measurement": "Kd", "setting": "[3]", "result": "~50", "unit": "µM"}
    ]},
    {"molecule": "ERRPRRQGRPRG [peptide corresponding to basic region, residues 347–359, of C-terminal tail of human NOXO1]", "values": [
      {"measurement": "binding to the tandem SH3 domains (qualitative)", "setting": "[3]; pH 7.4, data not shown", "result": "no binding was detected"}
    ]},
    {"molecule": "TAPPPTVPTRPS [PeptideA-short]", "values": [
      {"measurement": "Kd", "setting": "[4]", "result": "> 70", "unit": "µM"},
      {"measurement": "Kd", "setting": "[3]", "result": "~50", "unit": "µM"}
    ]},
    {"molecule": "CCCCC/C=C\\C/C=C\\C/C=C\\C/C=C\\CCCC(=O)O", "note": "[arachidonic acid]", "values": [
      {"measurement": "effect on interaction between NOXO1 and p22^phox", "setting": "[5]", "result": "could increase the interaction between NOXO1 and p22^phox"}
    ]}
  ]
}
